Assay results from patent US4970077A, “6-substituted-4-hydroxytetrahydropyran-2-one derivatives and pharmaceutical compositions containing them” (Boehringer Mannheim GmbH, priority 1988, dated 1990).

Experiments:
HMG-CoA reductase [1] = biological target: T1, HMG-CoA reductase (Rattus norvegicus, UniProt P51639); test: Inhibition of HMG-CoA reductase in a microsome fraction from rat liver; assay type: biochemical; settings: rat liver microsomes; for HMG-CoA-reductase Inhibition in %: concentration not given, method: 10^-4 M or 10^-5 M
T1 construct: microsomes from rat livers; from tissue; host or cells: liver of cholestyramine-treated rats (reversed day/night rhythm), microsome fraction
T1 sequence (P51639 1-887): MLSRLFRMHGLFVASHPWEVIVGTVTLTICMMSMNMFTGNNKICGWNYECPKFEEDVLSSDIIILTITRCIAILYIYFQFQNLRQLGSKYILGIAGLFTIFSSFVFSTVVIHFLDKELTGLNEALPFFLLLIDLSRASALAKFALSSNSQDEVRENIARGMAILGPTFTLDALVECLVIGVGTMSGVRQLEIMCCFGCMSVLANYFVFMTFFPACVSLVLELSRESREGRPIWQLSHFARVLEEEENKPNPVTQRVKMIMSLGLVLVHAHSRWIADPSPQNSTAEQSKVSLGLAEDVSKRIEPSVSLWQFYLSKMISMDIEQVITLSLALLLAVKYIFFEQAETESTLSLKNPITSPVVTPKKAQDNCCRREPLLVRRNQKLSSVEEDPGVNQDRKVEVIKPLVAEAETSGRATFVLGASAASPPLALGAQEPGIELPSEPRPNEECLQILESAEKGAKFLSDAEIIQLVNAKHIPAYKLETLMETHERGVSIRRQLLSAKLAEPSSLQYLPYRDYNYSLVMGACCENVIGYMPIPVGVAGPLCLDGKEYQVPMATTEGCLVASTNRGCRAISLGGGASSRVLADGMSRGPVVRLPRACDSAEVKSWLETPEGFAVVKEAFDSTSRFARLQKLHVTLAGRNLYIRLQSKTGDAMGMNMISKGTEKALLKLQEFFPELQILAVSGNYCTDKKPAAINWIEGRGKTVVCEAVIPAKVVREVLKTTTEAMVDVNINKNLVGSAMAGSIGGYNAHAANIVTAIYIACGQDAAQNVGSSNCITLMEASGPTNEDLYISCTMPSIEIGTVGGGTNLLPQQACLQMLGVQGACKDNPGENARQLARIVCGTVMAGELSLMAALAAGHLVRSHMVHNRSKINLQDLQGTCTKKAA
Excerpt: Inhibition of HMG-CoA reductase in a microsome fraction from rat liver
For the determination of the HMG-CoA reductase activity, microsomes from rat livers, which had been treated for 7 days in the case of reversed day/night rhythm with cholestyramine, were separated by centrifuging. The action of the test compounds at a concentration of 10^-4 M or 10^-5 M on the formation of mevalonate from (S,R) ^14 C--HMG--CoA was investigated. The experimental conditions are described in detail by J. Huber. S. Latzien and B. Hamprecht, Hoppe-Seylers Z. Physiol. Chem., 354, 1654/1973.

HMG-CoA reductase [2] = settings: literature: Endo 1976; Alberts 1980; cited from earlier work

O=C1C[C@H](O)C[C@@H](/C=C/c2c(Cl)cc(Cl)cc2C2CCCCCC2)O1 (relative stereo) [2 (a)]
HMG-CoA-reductase Inhibition in % (HMG-CoA reductase [1]): 95%

O=C1C[C@H](O)C[C@@H](/C=C/c2c(Cl)cccc2C2CCCCCC2)O1 (relative stereo) [2 (b)]
HMG-CoA-reductase Inhibition in % (HMG-CoA reductase [1]): 93%

O=C1C[C@H](O)C[C@@H](/C=C/c2c(Cl)cc(Cl)cc2C2CCCCC2)O1 (relative stereo) [2 (c)]
HMG-CoA-reductase Inhibition in % (HMG-CoA reductase [1]): 90%

O=C1C[C@H](O)C[C@@H](/C=C/c2ccccc2C2=CCCCC2)O1 (relative stereo) [2 (i)]
inhibition at 100 µM (HMG-CoA reductase [1]; 10^-4 M): 63%

CC[C@H](C)C(=O)O[C@H]1CCC=C2C=C[C@H](C)[C@H](CC[C@@H]3C[C@@H](O)CC(=O)O3)[C@H]21 [compactin A]
competitive inhibition of HMG-CoA reductase (in words) (HMG-CoA reductase [2]): competitively to inhibit HMG-CoA reductase

CC[C@H](C)C(=O)O[C@H]1C[C@@H](C)C=C2C=C[C@H](C)[C@H](CC[C@@H]3C[C@@H](O)CC(=O)O3)[C@H]21 [mevinolin]
competitive inhibition of HMG-CoA reductase (in words) (HMG-CoA reductase [2]): competitively to inhibit HMG-CoA reductase
